{
  "source": "paper PMC5917093",
  "about": "“Brain Transport Profiles of Ginsenoside Rb1 by Glucose Transporter 1: In Vitro and in Vivo” (Frontiers in Pharmacology, 2018)",
  "key": {"rBMEC": {"test_system": "rBMEC", "assay": "Cell viability assessment, CCK-8 assay", "settings": "37°C, 4 h", "method": "The cytotoxic effects of the test agents used in this study were assessed on confluent monolayers of cells in 96-well plates using a CCK-8 assay. Cells were subjected to a 200 μL/well of each drug in Hanks’ solution at the concentrations used in the experiments, followed by incubation for another 4 h. Then, 10 μL Cell Counting Kit-8 (CCK8, Dojindo) solution was added to each well. Plates were incubated for additional 4 h. Absorbance readings at 450 nm were obtained using a spectrophotometer (Thermo Varioskan) and expressed as percentage viability compared to control untreated cells."}, "GLUT3": {"test_system": "GLUT3", "assay": "Western blot, GLUT3 expression in rBMEC", "assay_type": "cell-based, rat", "settings": "phloretin 5 μM together with Rb1 60 μg/mL", "description": "(§1) Total proteins were extracted and 60 μg of each protein was separated on SDS-10% polyacrylamide gels. Proteins on the gel were transferred to PVDF membrane (Merck-Millipore). Blots were blocked with 5% skimmed milk dissolved in PBS containing 0.1% Tween-20 (PBST) for 2 h at room temperature. The membrane was incubated with primary antibody at 4°C overnight. Washing of the blots with PBST three times was followed by incubation with horseradish peroxidase-conjugated secondary antibody for 2 h at room temperature. After washing, the chemiluminescence signal was monitored using the ChemiDoc XRS+ system (Bio-Rad, Hercules, CA, United States). Densitometric semi-quantitative analysis of protein bands was carried out using Image J."}, "[1]": {"test_system": "rBMEC (primary cultured rat brain microvascular endothelial cells)", "assay": "Transporter inhibition assays: Rb1 uptake into rBMEC in presence of inhibitors", "assay_type": "in vitro ADME", "settings": "Rb1 60 μg/mL, 37°C; for effect on Rb1 uptake into rBMEC versus control: 120 min", "description": "In the present study, the uptake at 120 min was selected to measure the effect of test agents on the transport characteristics of Rb1. Rb1 concentration was set to be 60 μg/mL. The rBMEC was seeded out in 6-well plates, allowed to adhere, and grown to confluency. To study the transport mechanisms, uptake of Rb1 was carried out in the presence of a metabolic energy inhibitor and a series of established transporter inhibitors. The impact of these inhibitors on Rb1 uptake by rBMEC was assessed at the steady state at 37°C. NaN3 (500 μM), probenecid (100 μM), CsA (25, 50, and 100 μM), or phloretin (5 μM) was added to inhibit different transport systems. In the inhibition study, to further assess the effect of phloretin on Rb1 uptake into rBMEC, the cells were incubated at 37°C at a set time (5, 15, 30, 60, and 120 min). Uptake was measured after incubation with Rb1 in the presence of phloretin at the concentration of 5 μM.\nHPLC–MS/MS was composed by a Shimadzu LC-20A chromatographic system and an API 4000 mass spectrometer equipped with electrospray ionization (ESI) source system. MS/MS detection was performed on an API 4000 mass spectrometer using multiple reaction monitoring (MRM) mode by monitoring the fragmentation of m/z 1107.6 → 179.0 for Rb1 and m/z 779.4 → 345.2 for digoxin (IS). Chromatographic separations were carried out on a Shim-pack XD-ODS column (2.0 mm × 30 mm, 2.2 μm) with a Shim-pack GVD-ODS (2.0 mm × 5 mm, 4.6 μm) guard column (Shimadzu, Japan) at a flow rate of 0.28 mL/min using 10 mM acetic acid in water (phase A) and methanol (phase B) as mobile phase. A linear step gradient elution was performed as followed: phase B was increased from 45 to 90% within the first 3 min, and decreased to 45% within the next 3 min (total gradient time: 6 min). A 10 μL sample was injected into the system with the auto-sample conditioned at 4°C and column temperature maintained at 40°C.\nThe biological samples (100 μL) were placed in a 1.5 mL Eppendorf tube, and mixed with 10 μL IS solution (500 ng/mL) for 3 min by vortexing. The mixture was extracted with methanol (0.9 mL) by vortexing, and then centrifuged at 14,000 rpm for 5 min. The supernatant (0.8 mL) was transferred to a new 1.5 mL Eppendorf tube and evaporated to dryness under vacuum. The dried residue was reconstituted with 100 μL methanol, vortex-mixed for 30 s, and centrifuged at 14,000 rpm for 5 min. Finally, 10 μL of the supernatant liquid was immediately subjected to HPLC–MS/MS analysis. The system control and data analysis were performed by AB Sciex Analyst software (the software version: Analyst 1.5.1)."}, "GLUT1 [2]": {"test_system": "GLUT1", "assay": "Western blot, GLUT1 expression in rBMEC", "assay_type": "cell-based, rat", "settings": "phloretin 5 μM together with Rb1 60 μg/mL; at 30, 60 and 120 min", "description": "as §1"}, "GLUT1 [3]": {"test_system": "GLUT1", "assay": "Western blot, GLUT1 expression in normal rat brain", "assay_type": "in vivo", "settings": "phloretin 5 mg/kg i.v. for 1 week, P < 0.05", "description": "Rats were randomly divided into two groups in 36 of each group. One group served as the control and another group were treated with phloretin. Dose of phloretin was set to be 5 mg/kg. Rb1 (10 mg/kg, i.v.) was administered to the experimental rats after i.v. administration of phloretin or saline for consecutive 1 week. Six rats from each group were selected and the blood samples were collected into heparinized Eppendorf tubes via the abdominal aorta at 0.5, 2, and 6 h after Rb1 administration. Then, brain samples were immediately collected. The plasma samples were obtained by centrifuging at 1000 × g for 10 min. Plasma and brain samples were frozen at -80°C until analysis. Total proteins were extracted and 60 μg of each protein was separated on SDS-10% polyacrylamide gels. Proteins on the gel were transferred to PVDF membrane (Merck-Millipore). Blots were blocked with 5% skimmed milk dissolved in PBS containing 0.1% Tween-20 (PBST) for 2 h at room temperature. The membrane was incubated with primary antibody at 4°C overnight. […] After washing, the chemiluminescence signal was monitored using the ChemiDoc XRS+ system (Bio-Rad, Hercules, CA, United States). Densitometric semi-quantitative analysis of protein bands was carried out using Image J."}, "[4]": {"set-up": "method as in Li et al., 2007", "settings": "rats, TPNS injection 10.0 mg/kg intravenous; ref Li et al., 2007; cited from earlier work"}, "GLUT1 [5]": {"target": "T1, GLUT1 (Rattus norvegicus, UniProt P11167)", "T1 construct": "GLUT1, as the major GLUT isoform expressed in brain endothelial cells; endogenous in cells; host or cells: primary cultured rat brain microvascular endothelial cells (rBMEC)", "T1 sequence (P11167 1-492)": "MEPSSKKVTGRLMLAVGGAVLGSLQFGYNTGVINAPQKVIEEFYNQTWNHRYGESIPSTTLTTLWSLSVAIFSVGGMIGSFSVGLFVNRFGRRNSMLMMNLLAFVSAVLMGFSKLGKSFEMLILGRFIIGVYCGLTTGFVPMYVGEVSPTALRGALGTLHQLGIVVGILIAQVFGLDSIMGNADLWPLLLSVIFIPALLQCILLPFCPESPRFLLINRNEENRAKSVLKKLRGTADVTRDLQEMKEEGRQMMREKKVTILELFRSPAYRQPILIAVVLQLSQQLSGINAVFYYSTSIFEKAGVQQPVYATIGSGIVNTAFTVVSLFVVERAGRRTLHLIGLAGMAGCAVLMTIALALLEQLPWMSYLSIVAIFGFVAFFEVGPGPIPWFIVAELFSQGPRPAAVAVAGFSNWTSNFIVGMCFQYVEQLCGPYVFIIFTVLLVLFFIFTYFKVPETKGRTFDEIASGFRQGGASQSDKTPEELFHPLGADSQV", "assay": "Competitive inhibition of Rb1 uptake by rBMEC by D-glucose (Lineweaver-Burk plot)", "assay_type": "in vitro ADME", "settings": "100 mM D-glucose, Rb1 30-960 μg/mL, 37°C, 120 min", "description": "In the competition experiments, Rb1 uptake (30–960 μg/mL) was measured in the absence and presence of D-glucose (100 mM) which is a principal physiological substrate of GLUT1. Briefly, cells were grown in 6-well plates for 7 days before their medium was removed, pre-incubated with warm glucose-free Hanks’ solution for 30 min. Subsequently, samples and controls were treated as described transport studies, but this time in addition with 100 mM D-glucose to the various concentrations of Rb1 in glucose-free Hanks’ solution at 37°C for 120 min."}, "GLUT1 [6]": {"target": "GLUT1", "set-up": "method as in Burant and Bell, 1992", "settings": "ref Burant and Bell, 1992; read-out: Ki of GLUT1 for glucose; cited from earlier work"}},
  "data": [
    {"smiles": "O=C(CCc1ccc(O)cc1)c1c(O)cc(O)cc1O", "note": "[phloretin]", "values": [
      {"measurement": "viability of rBMEC versus control (CCK-8)", "setting": "rBMEC; phloretin 5 μM", "result": "no statistically significant differences"},
      {"measurement": "expression level of GLUT3 in rBMEC versus control", "setting": "GLUT3", "result": "no significant difference"},
      {"measurement": "effect on cell-to-medium (C/M) ratio of Rb1, time course", "setting": "[1]; phloretin 5 μM, 5-120 min, especially from min 30 to 120", "result": "significantly decreased"},
      {"measurement": "effect on Rb1 uptake into rBMEC versus control", "setting": "[1]; phloretin 5 μM, P < 0.01", "result": "significant decrease"},
      {"measurement": "expression level of GLUT1 in rBMEC versus control", "setting": "GLUT1 [2]", "result": "significantly lower"},
      {"measurement": "expression level of GLUT1 in brain versus untreated normal rats", "setting": "GLUT1 [3]", "result": "significantly decreased"}
    ]},
    {"smiles": "CC(C)=CCC[C@](C)(O[C@@H]1O[C@H](CO)[C@@H](O)[C@H](O)[C@H]1O)[C@H]1CC[C@]2(C)[C@@H]1[C@H](O)C[C@@H]1[C@@]3(C)CC[C@H](O)C(C)(C)[C@@H]3[C@@H](O[C@@H]3O[C@H](CO)[C@@H](O)[C@H](O)[C@H]3O)C[C@]12C", "note": "[Rg1, ginsenoside Rg1]", "values": [
      {"measurement": "duration in brain tissue", "setting": "[4]", "result": "~1", "unit": "h"},
      {"measurement": "largest content in brain tissue", "setting": "[4]", "result": "about 0.2 μg/g"}
    ]},
    {"smiles": "OC[C@H]1OC(O)[C@H](O)[C@@H](O)[C@@H]1O", "note": "(stereo partly drawn) [D-glucose]", "values": [
      {"measurement": "Ki", "setting": "GLUT1 [5]", "result": 885, "unit": "µM"},
      {"measurement": "Ki", "setting": "GLUT1 [6]", "result": "~1000", "unit": "µM"}
    ]},
    {"smiles": "CCCN(CCC)S(=O)(=O)c1ccc(C(=O)O)cc1", "note": "[probenecid]", "values": [
      {"measurement": "viability of rBMEC versus control (CCK-8)", "setting": "rBMEC; probenecid 100 μM", "result": "no statistically significant differences"},
      {"measurement": "effect on Rb1 uptake into rBMEC versus control", "setting": "[1]; probenecid 100 μM", "result": "no statistically significant differences"}
    ]},
    {"smiles": "[N-]=[N+]=[N-].[Na+]", "note": "[NaN3, sodium azide]", "values": [
      {"measurement": "viability of rBMEC versus control (CCK-8)", "setting": "rBMEC; NaN3 500 μM", "result": "no statistically significant differences"},
      {"measurement": "effect on Rb1 uptake into rBMEC versus control", "setting": "[1]; NaN3 500 μM", "result": "no statistically significant differences"}
    ]},
    {"smiles": "C=C1[C@@H](C)[C@H]2[C@H](Cc3ccccc3)NC(=O)[C@]23OC(=O)/C=C/C(=O)CCC[C@@H](C)C/C=C/[C@H]3[C@@H]1O", "note": "[CsA, cytochalasin A]", "values": [
      {"measurement": "viability of rBMEC versus control (CCK-8)", "setting": "rBMEC; CsA 25, 50 and 100 μM", "result": "no statistically significant differences"},
      {"measurement": "effect on Rb1 uptake into rBMEC versus control", "setting": "[1]; CsA 25, 50 and 100 μM", "result": "no statistically significant differences"}
    ]}
  ]
}
